# Target: Baculoviral IAP repeat-containing protein 2 (Homo sapiens, UniProt Q13490)
# Experiment: Binding Assays (DELFIA): BIR3 domains (10 nM) were incubated with SMAC peptide (10 nM) in assay buffer (50 mM Tris, 120 mM NaCl, 0.1% BSA, 1 mM DTT, 0.05% Triton X100) for one hour at room temperature in the presence of inhibitory compounds. The assay mixture was transferred to a streptavidin coated plate and incubated for one hour at room temperature to allow binding of the biotinylated peptide and associated BIR3 domains to the plate. After several washing steps Eu labeled anti-GST antibody (e.g. Perkin Elmer DELFIA Eu-N1-antiGST AD0250) was added to detect BIR3 domain-SMAC peptide interactions according to Perkin Elmer's instructions. Briefly, the antibody was added (dilution 1:5000 in Perkin Elmer DELFIA Assay Buffer 2013-01) and incubated for one hour. After 3 washing steps using Delfia Washing Buffer (Perkin Elmer DELFIA Wash 2013-05), Enhancement Solution (Perkin Elmer Enhancement Asolution 2013-02) was added and incubation continued for 10 minutes.
structure (smiles),measurement,value
CN[C@@H](C)C(=O)Nc1ccc(-c2c(-c3cccnc3OC)nc3ccccn23)c(C#Cc2ccc3c(C)nccc3c2)n1,IC50,in the range around 2 nM

# — ChEMBL document CHEMBL3886996, “6-alkynyl-pyridine derivatives” (2016)
